This is an account of results in PubChem BioAssay AID1388 (Sanford-Burnham Center for Chemical Genomics, 2008).

Calls of active or inactive are those of the source.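 Rule for the calls: active = no detectable phosphorylated eIF2 alpha band on the immunoblot of stressed cell lysates; inactive = phospho eIF2 alpha band still visible on the blot.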

The target of this test is Eukaryotic translation initiation factor 2 subunit 1 (Rattus norvegicus) (UniProt P68101). The experiment in a line: blockers of stress-induced eIF2α phosphorylation – cell-based, thapsigargin, Western blot, mechanism study for ER stress cell death project, late-stage follow-up (AID 1388). To be noted: CSM14.1 cells, phospho-eIF2a Western blot.
Eukaryotic translation initiation factor 2 subunit 1 (Rattus norvegicus), sequence (P68101 whole entry, looked up): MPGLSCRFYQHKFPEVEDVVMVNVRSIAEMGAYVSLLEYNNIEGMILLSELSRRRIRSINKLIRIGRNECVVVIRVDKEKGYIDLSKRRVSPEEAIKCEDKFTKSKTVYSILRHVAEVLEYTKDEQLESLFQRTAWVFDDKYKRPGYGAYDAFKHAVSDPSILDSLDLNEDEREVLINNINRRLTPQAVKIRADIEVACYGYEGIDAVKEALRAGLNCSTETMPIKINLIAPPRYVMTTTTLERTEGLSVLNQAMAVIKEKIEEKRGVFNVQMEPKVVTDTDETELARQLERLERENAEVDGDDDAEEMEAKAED
Turning to `COc1ccc(C2CC(=O)C3=C(C2)Nc2ccccc2NC3c2cccc(Oc3ccccc3)c2)cc1OC` (stereo unspecified), the outcome was inactive. The same measure for `CSc1ccc(C2Nc3ccccc3NC3=C2C(=O)CC(c2ccccc2)C3)cc1` (stereo unspecified): “inactive”; for `COc1ccc(C2CC(=O)C3=C(C2)Nc2ccccc2NC3c2cc(C)ccc2C)cc1` (stereo unspecified): “inactive”. In the case of `COc1ccc(C2CC(=O)C3=C(C2)Nc2ccccc2NC3c2ccccc2C(F)(F)F)cc1OC` (stereo unspecified), the result was inactive. On to `CC1(C)CC(=O)C2=C(C1)Nc1ccccc1NC2c1ccc(-c2ccccc2)cc1` (stereo unspecified), for which the result was inactive.

As for `CCOc1cc(C2Nc3ccccc3NC3=C2C(=O)CC(c2ccc(OC)cc2)C3)cc(Cl)c1O` (stereo unspecified), the result was inactive. On to `COc1ccc(C2CC(=O)C3=C(C2)Nc2ccccc2NC3c2cccc(C(F)(F)F)c2)cc1OC` (stereo unspecified), for which the result was inactive. Then `O=C1CC(c2ccccc2)CC2=C1C(c1c(F)cccc1Cl)Nc1ccccc1N2` (stereo unspecified), with “inactive”; and `COc1ccc(C2CC(=O)C3=C(C2)Nc2ccccc2NC3c2cccc(Br)c2)cc1OC` (stereo unspecified), with “inactive”. The same measure for `CCCOc1ccc(C2Nc3ccccc3NC3=C2C(=O)CC(c2ccc(OC)c(OC)c2)C3)cc1` (stereo unspecified): “inactive”; for `CCOc1cccc(C2Nc3ccccc3NC3=C2C(=O)CC(c2ccc(OC)cc2)C3)c1` (stereo unspecified): “inactive”.
